Reference: the supplement of paper PMC10307832

What was measured:
Assay in all cases: relative viability (nuclei count vs DMSO), 5 days (fraction); higher = more cells survive
[1] = compound: C1=CC=C2C(=C1)N=C(S2)C(C#N)C3=NC(=NC=C3)NCCC4=CN=CC=C4 + Cc1nc(Nc2ncc(C(=O)Nc3c(C)cccc3Cl)s2)cc(N2CCN(CCO)CC2)n1 [Dasatinib] (partner 0.075 µM)
How it was run: (§1)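 The day after seeding in 1536-well plates, lung cancer cell lines were treated by pin tool with a single drug, or with a fixed anchor-drug dose together with five library-drug doses (not always all listed) in √10 steps. After 5 days, a combined fix-and-stain solution (final 0.05% Triton X-100, 1% formaldehyde, 1 ug/ml Hoechst) was added. Nuclei counted on 4× images gave relative viability as treated counts over vehicle counts, reported as the median of duplicate plates.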

[2] = compound: C1=CC=C2C(=C1)N=C(S2)C(C#N)C3=NC(=NC=C3)NCCC4=CN=CC=C4 + CC(=O)c1c(C)c2cnc(Nc3ccc(N4CCNCC4)cn3)nc2n(C2CCCC2)c1=O [Palbociclib] (partner 0.5 µM)
How it was run: as §1

CUDC-101 + Crizotinib = compound: C#Cc1cccc(Nc2ncnc3cc(OC)c(OCCCCCCC(=O)NO)cc23)c1 [CUDC-101] + C[C@@H](Oc1cc(-c2cnn(C3CCNCC3)c2)cnc1N)c1c(Cl)ccc(F)c1Cl [Crizotinib] (partner 1 µM)
How it was run: as §1

Vandetanib + Lapatinib = compound: COc1cc2/c(=N/c3ccc(Br)cc3F)nc[nH]c2cc1OCC1CCN(C)CC1 [Vandetanib] + CS(=O)(=O)CCNCc1ccc(-c2ccc3ncnc(Nc4ccc(OCc5cccc(F)c5)c(Cl)c4)c3c2)o1 [Lapatinib] (partner 2 µM)
How it was run: as §1

Cell Line | relative viability ([1]; first compound 0.005 µM) | relative viability ([1]; first compound 0.01581 µM) | relative viability ([1]; first compound 0.05 µM) | relative viability ([1]; first compound 0.1581 µM) | relative viability ([1]; first compound 0.5 µM) | relative viability ([2]; first compound 0.005 µM) | relative viability ([2]; first compound 0.01581 µM) | relative viability ([2]; first compound 0.05 µM) | relative viability ([2]; first compound 0.1581 µM) | relative viability ([2]; first compound 0.5 µM) | relative viability (CUDC-101 + Crizotinib; first compound 0.01 µM) | relative viability (CUDC-101 + Crizotinib; first compound 0.03162 µM) | relative viability (CUDC-101 + Crizotinib; first compound 0.1 µM) | relative viability (CUDC-101 + Crizotinib; first compound 0.3162 µM) | relative viability (CUDC-101 + Crizotinib; first compound 1 µM) | relative viability (Vandetanib + Lapatinib; first compound 0.02 µM) | relative viability (Vandetanib + Lapatinib; first compound 0.06325 µM) | relative viability (Vandetanib + Lapatinib; first compound 0.2 µM) | relative viability (Vandetanib + Lapatinib; first compound 0.6325 µM) | relative viability (Vandetanib + Lapatinib; first compound 2 µM)
BEN | 0.229 | 0.323 | 0.326 | 0.479 | 0.425 | 0.417 | 0.472 | 0.473 | 0.473 | 0.444 | 1.04 | 0.772 | 0.933 | 0.809 | 0.579 | 0.75 | 0.686 | 0.677 | 0.742 | 0.812
NCI-H1651 | 0.307 | 0.35 | 0.587 | 0.393 | 0.3 | 0.473 | 0.518 | 0.535 | 0.539 | 0.504 | 0.91 | 0.803 | 0.91 | 0.934 | 0.813 | 0.776 | 0.834 | 0.743 | 0.698 | 0.846
NCI-H2126 | 0.603 | 0.543 | 0.573 | 0.584 | 0.49 | 0.299 | 0.363 | 0.365 | 0.347 | 0.354 | 1.07 | 1.08 | 1.01 | 1.01 | 0.866 | 0.698 | 0.747 | 0.805 | 0.724 | 0.768
NCI-H1703 | – | – | – | – | – | – | – | – | – | – | 1.07 | 0.707 | 0.765 | 0.712 | 0.477 | 1.13 | – | 1.24 | 0.932 | 0.417
NCI-H1395 | 0.353 | 0.398 | 0.408 | 0.411 | 0.396 | 0.616 | – | 0.524 | 0.726 | 0.601 | – | – | – | – | – | 0.963 | 0.875 | 1.03 | 0.936 | 0.864
EBC-1 | – | – | – | – | – | – | – | – | – | – | 0.17 | 0.182 | 0.202 | 0.147 | 0.127 | 0.212 | 0.204 | 0.19 | 0.211 | 0.183
NCI-H2342 | 0.32 | 0.314 | 0.349 | 0.328 | 0.337 | 0.481 | 0.513 | 0.52 | 0.501 | 0.557 | – | – | – | – | – | – | – | – | – | –
SW 900 | 0.625 | 0.53 | 0.564 | 0.844 | 0.543 | 0.441 | 0.496 | 0.412 | 0.586 | 0.458 | – | – | – | – | – | – | – | – | – | –
HCC-44 | – | – | – | – | – | 0.957 | 0.958 | 0.964 | 0.967 | 0.835 | 0.661 | 0.712 | 0.752 | 0.779 | 0.748 | 0.917 | 1 | 1.06 | 0.968 | 0.996
IA-LM | – | – | – | – | – | – | – | – | – | – | 0.944 | 0.91 | 0.868 | 0.587 | 0.466 | 0.762 | 0.737 | 0.953 | 0.798 | 0.987
NCI-H522 | 0.873 | 0.822 | 0.884 | 1.05 | 0.935 | 0.95 | 0.958 | 0.96 | 0.917 | 1.09 | – | – | – | – | – | – | – | – | – | –
NCI-H1299 | – | – | – | – | – | – | – | – | – | – | 0.926 | 0.957 | 0.998 | 0.837 | 0.934 | 0.965 | 0.95 | 0.892 | 0.968 | 0.948
NCI-H596 | 0.559 | 0.559 | 0.534 | 0.526 | 0.619 | – | – | – | – | – | 0.675 | 1 | 1.01 | 0.979 | 0.536 | 1.1 | 0.912 | 1.11 | 1.1 | 0.947
NCI-H441 | – | 0.663 | 0.638 | 0.473 | 0.425 | 0.231 | 0.184 | 0.232 | 0.241 | 0.187 | 0.833 | 0.739 | 0.87 | 0.843 | 0.514 | – | – | – | – | –
NCI-H1623 | 0.476 | 0.476 | 0.514 | 0.612 | 0.591 | – | – | – | – | – | – | – | – | – | – | – | – | – | – | –
NCI-H1563 | 0.536 | 0.413 | 0.426 | 0.44 | 0.473 | – | – | – | – | – | 0.721 | 0.874 | 0.891 | 0.791 | 0.68 | 0.957 | 0.882 | 1.39 | 0.953 | 1.03
NCI-H1793 | 0.366 | 0.419 | 0.363 | 0.436 | 0.435 | – | 0.344 | 0.29 | 0.319 | 0.276 | – | – | – | – | – | 0.682 | 0.794 | 0.504 | 0.816 | 0.723
NCI-H1648 | – | – | – | – | – | – | 0.294 | – | 0.331 | 0.281 | – | – | – | – | – | – | – | – | – | –
LCLC-103H | 0.415 | 0.456 | 0.473 | 0.507 | 0.312 | 0.491 | 0.468 | 0.514 | 0.522 | 0.485 | 0.891 | 0.916 | 1.08 | 1.08 | 0.957 | – | – | – | – | –
A549 | – | – | – | – | – | – | – | – | – | – | 0.855 | 1 | 0.927 | 0.793 | 0.632 | 1.05 | 0.935 | 0.905 | 1.01 | 0.946
Calu-6 | – | – | – | – | – | – | – | – | – | – | 0.835 | 0.958 | 0.745 | 0.664 | 0.547 | 1.08 | 0.966 | 1.12 | 0.94 | 1.07
